Values quoted from earlier work, collected in US20050079222A1, “Production of nanoparticles from methyl vinyl ether and maleic anhydride for the administration of hydrophilic pharmaceuticals, more particularly of puric and pyrimidinic bases” (priority 2001, published 2005).

Tested on: tumors
Details: versus 5-fluorouracile

Structure (SMILES): O=c1[nH]c(=O)n([C@@H]2O[C@H](CO)[C@@H](O)[C@H]2O)cc1F [5-fluorouridine, 2,4-dioxo-5-fluoropyrimidine riboside]
- antitumoral activity, times more potent than 5-fluorouracile and other derivatives: 100 times
